In patent US12146183B2, “Compound and a method for identifying a protein using said compound” (CITY UNIVERSITY OF HONG KONG, priority 2020, dated 2024):

Experiments:
[1] = target: T1, Sirt2 (Homo sapiens, UniProt Q8IXJ6); assay: HPLC delipoylation assay of lipoylated peptides with Sirt2; format: biochemical; conditions: Sirt2 + NAD+, 37° C., monitored at 280 nm after 40 min
T1 construct: made in house
T1 sequence (Q8IXJ6 1-389): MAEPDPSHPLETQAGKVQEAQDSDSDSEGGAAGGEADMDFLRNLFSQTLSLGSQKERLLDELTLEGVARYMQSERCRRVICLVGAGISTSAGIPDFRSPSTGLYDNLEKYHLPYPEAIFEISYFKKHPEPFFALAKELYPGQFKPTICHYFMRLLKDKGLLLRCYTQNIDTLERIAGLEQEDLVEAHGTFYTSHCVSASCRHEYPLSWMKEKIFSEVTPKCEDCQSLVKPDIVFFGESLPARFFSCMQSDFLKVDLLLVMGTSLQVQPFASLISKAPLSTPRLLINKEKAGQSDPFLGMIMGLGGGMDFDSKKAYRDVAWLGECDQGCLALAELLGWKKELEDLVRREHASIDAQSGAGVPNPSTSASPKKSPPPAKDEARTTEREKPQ
Procedure: A total of 11 lipoylated peptides (KAlip-1 to KAlip-11) were synthesised. The peptide sequences were selected from proteins that have been reported as being lipoylated (PDH, KDH, BCKDH, and GCV) and non-lipoylated proteins (e.g., histone). The peptides were synthesized with a standard Fmoc solid phase synthesis approach and characterized by LC-MS. The delipoylation activity was then determined by an HPLC assay. Compared with non-putative peptides, putative lipoylated peptides appeared to be more efficiently hydrolyzed by Sirt2. For example, the delipoylated product of KAlip-1 (derived from histone) after 40 min was determined to be 59%, which is less than that of putative lipoylated substrates such as KAlip-5 and KAlip-6 (derived from PDH).
The lipoylated peptides KAlip-1 to -11 were incubated with sirtuin and cofactor NAD+ at 37° C. in 20 mM HEPES buffer (pH 8.0) containing 150 mM NaCl, 1 mM MgCl2, and 2.7 mM KCl. The reaction volume was set to 50 μL. At each specific reaction time point, the reaction mixtures were quenched by adding 250 μL of methanol. The reactions were vortexed and centrifuged. Supernatant was collected and then analysed by reverse phase HPLC. The new peak generated was collected for ESI-MS or MALDI-TOF-MS analysis directly.

[2] = target: T1, Sirt2; assay: Steady-state kinetic study of lipoylated peptides with Sirt2 (HPLC); format: biochemical; conditions: relative to KAlip-1
Procedure: The delipoylation activity of HDAC8 was further examined using KAlip-5 and KAlip-1. […] A more detailed assessment of the enzymatic delipoylation reaction was performed. Time-dependent experiments and steady-state kinetics studies were conducted of KAlip-1, 5, 8, and 10 with Sirt2 (Table 1).
To determine the values of kcat, and Km, purified Sirt2 with 400 μM NAD+ was incubated with different concentrations of lipoylated peptide (0-120 μM) in 20 mM HEPES buffer (pH 8.0) containing 150 mM NaCl, 1 mM MgCl2, and 2.7 mM KCl at 37° C. for 10 min (KAlip-1 and KAlip-10) or 5 min (KAlip-5 and KAlip-8). The reactions were quenched by adding 250 μL of methanol and then applied for HPLC analysis with a linear gradient of 5% to 85% B (acetonitrile) for 30 min. The generated delipoylated product was quantified based on the peak area monitored at 280 nm. The kcat, and Km, values were calculated by curve-fitting Vinitiai/[E] versus [S]. The experiments were conducted in duplicate.

Delipoylation product (HPLC yield of delipoylated product) [1]: 71%
Catalytic efficiency of Sirt2 compared with nonputative H3K9 lipoyl peptide (KAlip-1) [2]: slightly higher
Substance: ALESVK(lip)AASEWW [KAlip-10]
